According to patent US9920032B2, “Heterocyclic compounds useful as pim kinase inhibitors” (Incyte Corporation, priority 2015, dated 2018):

Experiments:
Type in all cases: biochemical
Pim-3 = Pim-3 (Homo sapiens (Human), UniProt Q86V86); assay: Pim-3 kinase assay; conditions: 1 mM ATP; read-out: PIM3 IC50
In short: (§1)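 Enzyme at 2.5 pM (Pim-1) or 1.25 pM (Pim-3) reacted 1 h at 25° C with 1 mM ATP and 0.05 μM biotinylated BAD peptide, pH 7.5. Phospho-Ser112 BAD detected by antibody/Protein-A acceptor and streptavidin donor bead proximity signal after EDTA quench and 1 h dark incubation.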

Pim-2 = Pim-2 (Homo sapiens (Human), UniProt Q9P1W9); assay: Pim-2 kinase assay; conditions: 1 mM ATP; read-out: PIM2 IC50
Pim-2, sequence (Q9P1W9 whole entry): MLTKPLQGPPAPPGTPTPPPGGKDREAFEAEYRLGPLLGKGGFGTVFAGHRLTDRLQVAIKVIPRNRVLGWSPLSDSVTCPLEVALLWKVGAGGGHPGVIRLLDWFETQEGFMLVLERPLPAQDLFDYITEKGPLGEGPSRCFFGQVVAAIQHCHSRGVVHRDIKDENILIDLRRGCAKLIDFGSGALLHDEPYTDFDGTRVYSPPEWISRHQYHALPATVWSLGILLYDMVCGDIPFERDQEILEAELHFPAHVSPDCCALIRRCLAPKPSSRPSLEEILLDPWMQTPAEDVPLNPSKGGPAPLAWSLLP
In short: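 TR-FRET assay with 1 nM enzyme, 0.05 μM fluorescein-CREBtide and 1 mM ATP in Tris pH 7.5 buffer with MgCl2, DTT, BSA and Tween-20, run 2 h at 25° C. Stopped with EDTA and Tb-labelled anti-CREB pSer133 antibody, then read after 30 min at room temperature.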

Pim-1 = Pim-1 (Homo sapiens (Human), UniProt P11309); assay: Pim-1 kinase assay; conditions: 1 mM ATP; read-out: PIM1 IC50
Pim-1, sequence (P11309 whole entry): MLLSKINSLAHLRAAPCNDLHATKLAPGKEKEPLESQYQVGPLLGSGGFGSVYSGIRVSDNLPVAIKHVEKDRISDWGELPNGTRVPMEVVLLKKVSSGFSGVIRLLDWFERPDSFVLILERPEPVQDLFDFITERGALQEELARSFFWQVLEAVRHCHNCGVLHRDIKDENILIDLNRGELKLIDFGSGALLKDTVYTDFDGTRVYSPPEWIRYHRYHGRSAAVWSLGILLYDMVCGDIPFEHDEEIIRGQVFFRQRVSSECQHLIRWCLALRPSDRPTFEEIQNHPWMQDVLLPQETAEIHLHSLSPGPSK
In short: as §1

SMILES	IC50 (Pim-3) [nM]	IC50 (Pim-2) [nM]	IC50 (Pim-1) [nM]
CCC1CCCCN1c1cnc2c(C(=O)Nc3cnccc3[C@@H]3C[C@H](C)C[C@H](N)C3)ccc(F)c2c1 (stereo partly drawn) [Example 57, N-(4-((1R,3S,5S)-3-Amino-5-methylcyclohexyl)pyridin-3-yl)-3-(2-ethylpiperidin-1-yl)-5-fluoroquinoline-8-carboxamide]	10 to 50	≤ 100	≤ 10
C[C@@H]1C[C@H](N)C[C@H](c2ccncc2NC(=O)c2ccc(F)c3cc(N(C)CC(F)F)cnc23)C1 [Example 42, N-(4-((1R,3S,5S)-3-Amino-5-methylcyclohexyl)pyridin-3-yl)-3-((2,2-difluoroethyl)(methyl)amino)-5-fluoroquinoline-8-carboxamide]	≤ 10	≤ 100	≤ 10
C[C@@H]1C[C@H](N)C[C@H](c2ccncc2NC(=O)c2ccc(F)c3cc(N4CCC[C@@H](C)C4)cnc23)C1 [Example 105, N-(4-((1R,3S,5S)-3-Amino-5-methylcyclohexyl)pyridin-3-yl)-5-fluoro-3-((R)-3-methylpiperidin-1-yl)quinoline-8-carboxamide]	≤ 10	≤ 100	≤ 10
COCCN1CCN(c2cnc3c(C(=O)Nc4cnccc4[C@@H]4C[C@H](C)C[C@H](N)C4)ccc(F)c3c2)CC1=O [Example 133, N-(4-((1R,3S,5S)-3-Amino-5-methylcyclohexyl)pyridin-3-yl)-5-fluoro-3-(4-(2-methoxyethyl)-3-oxopiperazin-1-yl)quinoline-8-carboxamide]	≤ 10	100 to 1000	≤ 10
C[C@@H]1C[C@H](N)C[C@H](c2ccncc2NC(=O)c2ccc(F)c3cc(N(C)C)cnc23)C1 [Example 25, N-{4-[(1R,3S,5S)-3-Amino-5-methylcyclohexyl]pyridin-3-yl}-3-(dimethylamino)-5-fluoroquinoline-8-carboxamide]	≤ 10	≤ 100	≤ 10
COc1ccncc1N(C)c1cnc2c(C(=O)Nc3cnccc3[C@@H]3C[C@H](C)C[C@H](N)C3)ccc(F)c2c1 [Example 150, N-(4-((1R,3S,5S)-3-Amino-5-methylcyclohexyl)pyridin-3-yl)-5-fluoro-3-((4-methoxypyridin-3-yl)(methyl)amino)quinoline-8-carboxamide]	≤ 10	≤ 100	≤ 10
C[C@@H]1C[C@H](N)C[C@H](c2ccncc2NC(=O)c2ccc(F)c3cc(N4CCOC[C@H]4C)cnc23)C1 [Example 32, N-(4-((1R,3S,5S)-3-Amino-5-methylcyclohexyl)pyridin-3-yl)-5-fluoro-3-((R)-3-methylmorpholino)quinoline-8-carboxamide]	≤ 10	≤ 100	≤ 10
C[C@@H]1C[C@H](N)C[C@H](c2ccncc2NC(=O)c2ccc(F)c3cc(N(C)C4CCC4)cnc23)C1 [Example 24, N-{4-[(1R,3S,5S)-3-Amino-5-methylcyclohexyl]pyridin-3-yl}-3-[cyclobutyl(methyl)amino]-5-fluoroquinoline-8-carboxamide]	≤ 10	100 to 1000	≤ 10
CC1CN(c2cnc3c(C(=O)Nc4cnccc4[C@@H]4C[C@H](C)C[C@H](N)C4)ccc(F)c3c2)C(C)CO1 (stereo partly drawn) [Example 35, N-(4-((1R,3S,5S)-3-Amino-5-methylcyclohexyl)pyridin-3-yl)-3-(2,5-dimethylmorpholino)-5-fluoroquinoline-8-carboxamide]	10 to 50	1000 to 10000	≤ 10
C[C@@H]1C[C@H](N)C[C@H](c2ccncc2NC(=O)c2ccc(F)c3cc(N4CC[C@@H](F)C4)cnc23)C1 [Example 6, N-{4-[(1R,3S,5S)-3-Amino-5-methylcyclohexyl]pyridin-3-yl}-5-fluoro-3-[(3R)-3-fluoropyrrolidin-1-yl]quinoline-8-carboxamide]	≤ 10	≤ 100	≤ 10
C[C@@H]1C[C@H](N)C[C@H](c2ccncc2NC(=O)c2ccc(F)c3cc(N4CCN(C)CC4)cnc23)C1 [Example 30, N-{4-[(1R,3S,5S)-3-Amino-5-methylcyclohexyl]pyridin-3-yl}-5-fluoro-3-(4-methylpiperazin-1-yl)quinoline-8-carboxamide]	≤ 10	100 to 1000	≤ 10
C[C@@H]1C[C@H](N)C[C@H](c2ccncc2NC(=O)c2ccc(F)c3cc(N4C[C@H]5C[C@@H]4CN5S(C)(=O)=O)cnc23)C1 [Example 87, N-(4-((1R,3S,5S)-3-Amino-5-methylcyclohexyl)pyridin-3-yl)-5-fluoro-3-((1R,4R)-5-(methylsulfonyl)-2,5-diazabicyclo[2.2.1]heptan-2-yl)quinoline-8-carboxamide]	≤ 10	100 to 1000	≤ 10
C[C@@H]1C[C@H](N)C[C@H](c2ccncc2NC(=O)c2ccc(F)c3cc(N4CCCCO4)cnc23)C1 [Example 109, N-(4-((1R,3S,5S)-3-amino-5-methylcyclohexyl)pyridin-3-yl)-5-fluoro-3-(1,2-oxazinan-2-yl)quinoline-8-carboxamide]	≤ 10	≤ 100	≤ 10
C[C@@H]1C[C@H](N)C[C@H](c2ccncc2NC(=O)c2ccc(F)c3cc(N(C)CC(F)(F)F)cnc23)C1 [Example 21, N-{4-[(1R,3S,5S)-3-Amino-5-methylcyclohexyl]pyridin-3-yl}-5-fluoro-3-[methyl(2,2,2-trifluoroethyl)amino]quinoline-8-carboxamide]	≤ 10	≤ 100	≤ 10
CO[C@H]1CCCN(c2cnc3c(C(=O)Nc4cnccc4[C@@H]4C[C@H](C)C[C@H](N)C4)ccc(F)c3c2)C1 [Example 11, N-{4-[(1R,3S,5S)-3-Amino-5-methylcyclohexyl]pyridin-3-yl}-5-fluoro-3-[(38)-3-methoxypiperidin-1-yl]quinoline-8-carboxamide]	≤ 10	100 to 1000	≤ 10
C[C@@H]1C[C@H](N)C[C@H](c2ccncc2NC(=O)c2ccc(F)c3cc(N4CCN(C(=O)N(C)C)CC4)cnc23)C1 [Example 82, N-(4-((1R,3S,5S)-3-Amino-5-methylcyclohexyl)pyridin-3-yl)-3-(4-(dimethylcarbamoyl)piperazin-1-yl)-5-fluoroquinoline-8-carboxamide]	≤ 10	100 to 1000	≤ 10
C[C@@H]1C[C@H](N)C[C@H](c2ccncc2NC(=O)c2ccc(F)c3cc(N4CCCC[C@@H]4C)cnc23)C1 [Example 170, N-(4-((1R,3S,5S)-3-Amino-5-methylcyclohexyl)pyridin-3-yl)-5-fluoro-3-((S)-2-methylpiperidin-1-yl)quinoline-8-carboxamide]	10 to 50	100 to 1000	≤ 10
COC(=O)N1CCN(c2cnc3c(C(=O)Nc4cnccc4[C@@H]4C[C@H](C)C[C@H](N)C4)ccc(F)c3c2)[C@H](C)C1 [Example 89, (R)-Methyl 4-(8-(4-((1R,3S,5S)-3-amino-5-methylcyclohexyl)pyridin-3-ylcarbamoyl)-5-fluoroquinolin-3-yl)-3-methylpiperazine-1-carboxylate]	≤ 10	≤ 100	≤ 10
C[C@@H]1C[C@H](N)C[C@H](c2ccncc2NC(=O)c2ccc(F)c3cc(N4CCC(O)CC4)cnc23)C1 [Example 44, N-(4-((1R,3S,5S)-3-Amino-5-methylcyclohexyl)pyridin-3-yl)-5-fluoro-3-(4-hydroxypiperidin-1-yl)quinoline-8-carboxamide]	≤ 10	100 to 1000	≤ 10
COc1ccc(N(C)c2cnc3c(C(=O)Nc4cnccc4[C@@H]4C[C@H](C)C[C@H](N)C4)ccc(F)c3c2)c(C)n1 [Example 144, N-(4-((1R,3S,5S)-3-Amino-5-methylcyclohexyl)pyridin-3-yl)-5-fluoro-3-((6-methoxy-2-methylpyridin-3-yl)(methyl)amino)quinoline-8-carboxamide]	≤ 10	≤ 100	≤ 10
C[C@@H]1C[C@H](N)C[C@H](c2ccncc2NC(=O)c2ccc(F)c3cc(N4CCOC(CO)C4)cnc23)C1 (stereo partly drawn) [Example 132, N-(4-((1R,3S,5S)-3-Amino-5-methylcyclohexyl)pyridin-3-yl)-5-fluoro-3-(2-(hydroxymethyl)morpholino)quinoline-8-carboxamide]	≤ 10	100 to 1000	≤ 10
C[C@@H]1C[C@H](N)C[C@H](c2ccncc2NC(=O)c2ccc(F)c3cc(N4CCC(F)(F)CC4)cnc23)C1 [Example 40, N-(4-((1R,3S,5S)-3-Amino-5-methylcyclohexyl)pyridin-3-yl)-3-(4,4-difluoropiperidin-1-yl)-5-fluoroquinoline-8-carboxamide]	≤ 10	100 to 1000	≤ 10
COCCO[C@H]1CCN(c2cnc3c(C(=O)Nc4cnccc4[C@@H]4C[C@H](C)C[C@H](N)C4)ccc(F)c3c2)C[C@@H]1F [Example 163]	≤ 10	≤ 100	≤ 10
C[C@@H]1C[C@H](N)C[C@H](c2ccncc2NC(=O)c2ccc(F)c3cc(N4CCc5cnn(C)c5C4)cnc23)C1 [Example 127, N-(4-((1R,3S,5S)-3-Amino-5-methylcyclohexyl)pyridin-3-yl)-5-fluoro-3-(1-methyl-4,5-dihydro-1H-pyrazolo[3,4-c]pyridin-6(7H)-yl)quinoline-8-carboxamide]	≤ 10	≤ 100	≤ 10
